Data published in patent publication US20240218022A1, “ANTI-VISTA MACROCYCLIC PEPTIDES AND COMPOSITIONS” (BRISTOL-MYERS SQUIBB COMPANY, priority 2022, published 2024).
Starred links: 1 amine or outer side, 2 acyl side, 3 side chain; linkers in the order of their positions; H or OH if unused. Positions of bridges follow the written chain, without caps; N, C: chain ends. Non-standard residues stand in square brackets, D forms with d. Residues, ends and D or L forms follow the SMILES beside them. ξ: configuration not given here. Phe(4-CF3) = N[C@@H](Cc1ccc(C(F)(F)F)cc1)C(=O)O; Phe(4-CONH2) = NC(=O)c1ccc(C[C@H](N)C(=O)O)cc1; Phe(4-COOH) = N[C@@H](Cc1ccc(C(=O)O)cc1)C(=O)O; βAsp = O=C(O)[C@H](CC(=O)[*:2])N[*:1]; Pro(4ξ-F) = O=C(O)[C@@H]1CC(F)CN1; NMeL = CN[C@@H](CC(C)C)C(=O)O; Ahp(2) = CCCCC[C@H](N)C(=O)O; NMeNle = CCCC[C@H](NC)C(=O)O; Tle = CC(C)(C)[C@H](N)C(=O)O; NMeV = CN[C@H](C(=O)O)C(C)C; NMeS = CN[C@@H](CO)C(=O)O; NHexGly = CCCCCCNCC(=O)O; NMeA = CN[C@@H](C)C(=O)O; Nle = CCCC[C@H](N)C(=O)O; Orn = NCCC[C@H](N)C(=O)O; Aun = NCCCCCCCCCCC(=O)O; Nva = CCC[C@H](N)C(=O)O; AEEA = NCCOCCOCC(=O)O

target: T1, mouse VISTA (mVISTA) (Mus musculus, UniProt Q9D659); assay: Cell-Based Binding High-Content Assay For mVISTA (HC CBA mVISTA); conditions: 293T cells expressing mouse VISTA; competition with biotinylated peptide (2 nM); read-out: HC CBA mVISTA IC50
T1 construct: expressed in transfected cells; host or cells: Human embryonic kidney 293T cells
T1 sequence (Q9D659 33-308): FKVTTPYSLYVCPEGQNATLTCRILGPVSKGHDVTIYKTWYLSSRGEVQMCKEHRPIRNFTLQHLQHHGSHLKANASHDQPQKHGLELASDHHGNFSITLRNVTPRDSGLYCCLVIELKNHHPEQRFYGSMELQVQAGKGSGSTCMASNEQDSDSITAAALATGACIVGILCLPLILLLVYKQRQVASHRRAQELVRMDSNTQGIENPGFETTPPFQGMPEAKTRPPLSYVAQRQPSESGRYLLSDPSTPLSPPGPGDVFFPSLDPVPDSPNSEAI
How it was run: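 Competition of compound with a biotinylated peptide (final 2 nM, 30 min at RT) for binding to mVISTA on 293T cells, run under no-wash or wash (1 h compound preincubation then removal) formats. Readout by Alexa 647–streptavidin imaging on a high-content platform; four-parameter logistic fit gave IC50.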

IC50 [µM]	Compound
0.0322	CCCCCCN1CC(=O)N[C@@H](Cc2ccc(O)cc2)C(=O)N[C@@H](CCC)C(=O)N[C@@H](CC(N)=O)C(=O)N[C@@H](CCCNC(=N)N)C(=O)N[C@@H](CC(C)C)C(=O)N[C@@H](CCCCC)C(=O)N2CCC[C@H]2C(=O)N[C@@H](C(C)C)C(=O)N[C@@H](CO)C(=O)N[C@H](C(=O)NCC(=O)O)CSCC(=O)N[C@@H](Cc2ccccc2)C(=O)N[C@@H](Cc2ccc(O)cc2)C(=O)N[C@@H](CC(=O)O)C1=O [Example 1047] ({CH2CO}-FYD[NHexGly]Y[Nva]NRL[Ahp(2)]PVSCG-OH; thioether N-14)
0.0394	CCCCCCN1CC(=O)N[C@@H](Cc2ccc(O)cc2)C(=O)N[C@@H](CC(C)C)C(=O)N[C@@H](CC(N)=O)C(=O)N[C@@H](CCCNC(=N)N)C(=O)N[C@@H](CC(C)C)C(=O)N[C@@H](CCCCC)C(=O)N2CCC[C@H]2C(=O)N[C@@H](C(C)C)C(=O)N[C@@H](Cc2c[nH]c3ccccc23)C(=O)N[C@H](C(=O)NCC(=O)O)CSCC(=O)N[C@@H](Cc2ccccc2)C(=O)N[C@@H](Cc2ccc(O)cc2)C(=O)N[C@@H](CC(=O)O)C1=O [Example 1068] ({CH2CO}-FYD[NHexGly]YLNRL[Ahp(2)]PVWCG-OH; thioether N-14)

same assay, conditions: cell-based binding high-content assay, mVISTA; read-out: HC CBA miPr ISTA IC50

IC50 [µM]	Compound
0.0317	CCCCCCN1CC(=O)N[C@@H](Cc2ccc(O)cc2)C(=O)N[C@@H](CC(C)C)C(=O)N[C@@H](CC(N)=O)C(=O)N[C@@H](CCCNC(=N)N)C(=O)N(C)[C@@H](CC(C)C)C(=O)N[C@@H](CCCCC)C(=O)N2CCC[C@H]2C(=O)N[C@@H](C(C)(C)C)C(=O)N[C@@H](CO)C(=O)N[C@H](C(=O)N[C@@H](CC(=O)NCCOCCOCC(=O)N[C@@H](CC(=O)O)C(=O)NCCOCCOCC(=O)NCCCCCCCCCCC(=O)O)C(=O)O)CSCC(=O)N[C@@H](Cc2ccc(C(=O)O)cc2)C(=O)N[C@@H](Cc2ccc(O)cc2)C(=O)N[C@@H](CC(=O)O)C1=O [compound 2052] ({CH2CO}-[Phe(4-COOH)]YD[NHexGly]YLNR[NMeL][Ahp(2)]P[Tle]SC[βAsp][AEEA]D[AEEA][Aun]-OH; thioether N-14)
0.0275	CCCCCCN1CC(=O)N[C@@H](Cc2ccc(O)cc2)C(=O)N[C@@H](CC(C)C)C(=O)N[C@@H](CC(N)=O)C(=O)N[C@@H](CCCNC(=N)N)C(=O)N(C)[C@@H](CCCC)C(=O)N[C@@H](CCCCC)C(=O)N2CCC[C@H]2C(=O)N[C@@H](C(C)(C)C)C(=O)N[C@@H](CC(=O)O)C(=O)N[C@H](C(=O)N[C@@H](CC(=O)NCCOCCOCC(=O)N[C@@H](CC(=O)O)C(=O)NCCOCCOCC(=O)NCCCCCCCCCCC(=O)O)C(=O)O)CSCC(=O)N[C@@H](Cc2ccccc2)C(=O)N[C@@H](Cc2c[nH]c3ccccc23)C(=O)N[C@@H](CC(=O)O)C1=O [compound 2027] ({CH2CO}-FWD[NHexGly]YLNR[NMeNle][Ahp(2)]P[Tle]DC[βAsp][AEEA]D[AEEA][Aun]-OH; thioether N-14)
0.0371	CCCCCCN1CC(=O)N[C@@H](Cc2ccc(O)cc2)C(=O)N[C@@H](CC(C)C)C(=O)N[C@@H](CC(N)=O)C(=O)N[C@@H](CCCNC(=N)N)C(=O)N(C)[C@@H](CO)C(=O)N[C@@H](CCCCC)C(=O)N2CCC[C@H]2C(=O)N[C@@H](C(C)(C)C)C(=O)N[C@@H](CC(=O)O)C(=O)N[C@H](C(=O)N[C@@H](CC(=O)NCCOCCOCC(=O)N[C@@H](CC(=O)O)C(=O)NCCOCCOCC(=O)NCCCCCCCCCCC(=O)O)C(=O)O)CSCC(=O)N[C@@H](Cc2ccccc2)C(=O)N[C@@H](Cc2ccc(O)cc2)C(=O)N[C@@H](CC(=O)O)C1=O [compound 2035] ({CH2CO}-FYD[NHexGly]YLNR[NMeS][Ahp(2)]P[Tle]DC[βAsp][AEEA]D[AEEA][Aun]-OH; thioether N-14)

same assay, conditions: read-out: HC CBA mVISTA IC50

IC50 [µM]	Compound
0.0386	CCCCCCN1CC(=O)N[C@@H](Cc2ccc(O)cc2)C(=O)N[C@@H](CCCC)C(=O)N[C@@H](CC(N)=O)C(=O)N[C@@H](CCCNC(=N)N)C(=O)N(C)[C@@H](CCCC)C(=O)N[C@@H](CCCCC)C(=O)N2CC(F)C[C@H]2C(=O)N[C@@H](C(C)(C)C)C(=O)N[C@@H](CO)C(=O)N[C@H](C(=O)N[C@@H](CC(=O)NCCOCCOCC(=O)NCCCCCCCCCCC(=O)O)C(=O)O)CSCC(=O)N[C@@H](Cc2ccccc2)C(=O)N[C@@H](Cc2c[nH]c3ccccc23)C(=O)N[C@@H](CC(=O)O)C1=O (some centres unmarked) [Example 2194] ({CH2CO}-FWD[NHexGly]Y[Nle]NR[NMeNle][Ahp(2)][Pro(4ξ-F)][Tle]SC[βAsp][AEEA][Aun]-OH; thioether N-14)
0.0127	CCCCCCN1CC(=O)N[C@@H](Cc2ccc(O)cc2)C(=O)N[C@@H](CCCC)C(=O)N[C@@H](CC(N)=O)C(=O)N[C@@H](CCCNC(=N)N)C(=O)N(C)[C@@H](C(C)C)C(=O)N[C@@H](CCCCC)C(=O)N2CCC[C@H]2C(=O)N[C@@H](C(C)C)C(=O)N[C@@H](CC(=O)O)C(=O)N[C@H](C(=O)NCC(=O)O)CSCC(=O)N[C@@H](Cc2ccccc2)C(=O)N[C@@H](Cc2c[nH]c3ccccc23)C(=O)N[C@@H](CC(=O)O)C1=O [Example 1409] ({CH2CO}-FWD[NHexGly]Y[Nle]NR[NMeV][Ahp(2)]PVDCG-OH; thioether N-14)
0.0166	CCCCCCN1CC(=O)N[C@@H](Cc2ccc(O)cc2)C(=O)N[C@@H](CCCC)C(=O)N[C@@H](CC(N)=O)C(=O)N[C@@H](CCCNC(=N)N)C(=O)N(C)[C@@H](C)C(=O)N[C@@H](CCCCC)C(=O)N2CCC[C@H]2C(=O)N[C@@H](C(C)C)C(=O)N[C@@H](CO)C(=O)N[C@H](C(=O)N[C@@H](CC(=O)NCCOCCOCC(=O)NCCCCCCCCCCC(=O)O)C(=O)O)CSCC(=O)N[C@@H](Cc2ccccc2)C(=O)N[C@@H](Cc2c[nH]c3ccccc23)C(=O)N[C@@H](CC(=O)O)C1=O [Example 2174] ({CH2CO}-FWD[NHexGly]Y[Nle]NR[NMeA][Ahp(2)]PVSC[βAsp][AEEA][Aun]-OH; thioether N-14)
0.0425	CCCCCCN1CC(=O)N[C@@H](Cc2ccc(O)cc2)C(=O)N[C@@H](CCCC)C(=O)N[C@@H](CC(=O)O)C(=O)N[C@@H](CCCNC(=N)N)C(=O)N(C)[C@@H](CCCC)C(=O)N[C@@H](CCCCC)C(=O)N2CCC[C@H]2C(=O)N[C@@H](C(C)(C)C)C(=O)N[C@@H](CO)C(=O)N[C@H](C(=O)N[C@@H](CC(=O)O)C(N)=O)CSCC(=O)N[C@@H](Cc2ccccc2)C(=O)N[C@@H](Cc2c[nH]c3ccccc23)C(=O)N[C@@H](CC(=O)O)C1=O [Example 1375] ({CH2CO}-FWD[NHexGly]Y[Nle]DR[NMeNle][Ahp(2)]P[Tle]SCD-NH2; thioether N-14)
0.0271	CCCCCCN1CC(=O)N[C@@H](Cc2ccc(O)cc2)C(=O)N[C@@H](CC(C)C)C(=O)N[C@@H](CC(N)=O)C(=O)N[C@@H](CCCNC(=N)N)C(=O)N(C)[C@@H](CCCC)C(=O)N[C@@H](CCCCC)C(=O)N2CCC[C@H]2C(=O)N[C@@H](C(C)C)C(=O)N[C@@H](CO)C(=O)N[C@H](C(=O)NCC(N)=O)CSCC(=O)N[C@@H](Cc2ccc(C(N)=O)cc2)C(=O)N[C@@H](Cc2ccc(O)cc2)C(=O)N[C@@H](CC(=O)O)C1=O [compound 1213] ({CH2CO}-[Phe(4-CONH2)]YD[NHexGly]YLNR[NMeNle][Ahp(2)]PVSCG-NH2; thioether N-14)
0.0388	CCCCCCN1CC(=O)N[C@@H](Cc2ccc(O)cc2)C(=O)N[C@@H](Cc2ccc(C(=O)O)cc2)C(=O)N[C@@H](CC(N)=O)C(=O)N[C@@H](CCCNC(=N)N)C(=O)N(C)[C@@H](CCCC)C(=O)N[C@@H](CCCCC)C(=O)N2CCC[C@H]2C(=O)N[C@@H](C(C)(C)C)C(=O)N[C@@H](CC(=O)O)C(=O)N[C@H](C(N)=O)CSCC(=O)N[C@@H](Cc2ccccc2)C(=O)N[C@@H](Cc2c[nH]c3ccccc23)C(=O)N[C@@H](CC(=O)O)C1=O [compound 1167] ({CH2CO}-FWD[NHexGly]Y[Phe(4-COOH)]NR[NMeNle][Ahp(2)]P[Tle]DC-NH2; thioether N-14)
0.016	CCCCCCN1CC(=O)N[C@@H](Cc2ccc(O)cc2)C(=O)N[C@@H](CCCC)C(=O)N[C@@H](CC(N)=O)C(=O)N[C@@H](CCCN)C(=O)N(C)[C@@H](CCCC)C(=O)N[C@@H](CCCCC)C(=O)N2CCC[C@H]2C(=O)N[C@@H](C(C)(C)C)C(=O)N[C@@H](CC(=O)O)C(=O)N[C@H](C(=O)N[C@@H](CC(N)=O)C(=O)O)CSCC(=O)N[C@@H](Cc2ccccc2)C(=O)N[C@@H](Cc2c[nH]c3ccccc23)C(=O)N[C@@H](CC(=O)O)C1=O [Example 1404] ({CH2CO}-FWD[NHexGly]Y[Nle]N[Orn][NMeNle][Ahp(2)]P[Tle]DCN-OH; thioether N-14)

same assay, conditions: the 20th table, scaffold drawing 23; read-out: HC CBA mVISTA IC50

IC50 [µM]	Compound
0.0234	CCCCCCN1CC(=O)N[C@@H](Cc2ccc(O)cc2)C(=O)N[C@@H](CCCC)C(=O)N[C@@H](CC(N)=O)C(=O)N[C@@H](CCCNC(=N)N)C(=O)N[C@@H](CC(C)C)C(=O)N[C@@H](CCCCC)C(=O)N2CCC[C@H]2C(=O)N[C@@H](C(C)C)C(=O)N[C@@H](CC(=O)O)C(=O)N[C@H](C(=O)NCC(=O)O)CSCC(=O)N[C@@H](Cc2ccc(C(F)(F)F)cc2)C(=O)N[C@@H](Cc2c[nH]c3ccccc23)C(=O)N[C@@H](CC(=O)O)C1=O [compound 1459] ({CH2CO}-[Phe(4-CF3)]WD[NHexGly]Y[Nle]NRL[Ahp(2)]PVDCG-OH; thioether N-14)
0.0492	CCCCCCN1CC(=O)N[C@@H](Cc2ccc(O)cc2)C(=O)N[C@@H](C(C)C)C(=O)NCC(=O)N[C@@H](CCCNC(=N)N)C(=O)N[C@@H](CC(C)C)C(=O)N[C@@H](CCCCC)C(=O)N2CCC[C@H]2C(=O)N[C@@H](C(C)C)C(=O)N[C@@H](CC(=O)O)C(=O)N[C@H](C(=O)NCC(N)=O)CSCC(=O)N[C@@H](Cc2ccc(OC)cc2)C(=O)N[C@@H](Cc2ccc(O)cc2)C(=O)N[C@@H](CC(=O)O)C1=O [compound 1477] ({CH2CO}-Y(Me)YD[NHexGly]YVGRL[Ahp(2)]PVDCG-NH2; thioether N-14)
